One block for each compound: values may come before it.
Key:
OAT3 = biological target: T1, OAT3 (Homo sapiens, UniProt Q8TCC7); assay: Transcellular transport assay of OAT3 substrate
T1 sequence (Q8TCC7 1-542): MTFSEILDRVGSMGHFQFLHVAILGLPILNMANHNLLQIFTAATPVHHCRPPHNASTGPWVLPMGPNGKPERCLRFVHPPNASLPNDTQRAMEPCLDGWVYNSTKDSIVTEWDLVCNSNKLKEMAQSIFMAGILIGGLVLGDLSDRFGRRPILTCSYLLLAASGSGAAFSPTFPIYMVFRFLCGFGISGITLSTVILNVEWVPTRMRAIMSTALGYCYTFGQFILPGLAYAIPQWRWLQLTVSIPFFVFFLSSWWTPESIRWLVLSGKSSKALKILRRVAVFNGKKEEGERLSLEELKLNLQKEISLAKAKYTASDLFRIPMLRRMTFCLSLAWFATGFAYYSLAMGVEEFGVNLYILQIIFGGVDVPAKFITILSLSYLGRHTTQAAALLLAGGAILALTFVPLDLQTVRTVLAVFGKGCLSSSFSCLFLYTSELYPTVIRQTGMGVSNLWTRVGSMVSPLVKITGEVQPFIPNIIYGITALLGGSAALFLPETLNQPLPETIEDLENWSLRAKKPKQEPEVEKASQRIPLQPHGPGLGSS

MRPs [1] = assay: Fluorescein uptake and transport with MK571 in #1-LTL+ PToC; type: cell-based, human
MRPs [2] = assay: Transcellular transport assay of OAT1/3 substrates with MK571 in #1-LTL+ PToC; conditions: 10 μM MK571
OCT2 and MATE1 = assay: Transcellular transport assay of metformin in PToC, LC/MS
OAT1/3 [3] = assay: Fluorescein uptake assay; type: cell-based, human; conditions: 2 μM fluorescein, 30 min
OAT1/3 [4] = assay: Transported fluorescein amount; type: in vitro ADME, human; conditions: plate reader; 30 min
OAT1 = biological target: T2, OAT1 (Homo sapiens, UniProt Q4U2R8); assay: Transcellular transport assay of OAT1 substrates; conditions: 10 μM substrate; #1-LTL+ PToC
T2 sequence (Q4U2R8 1-563): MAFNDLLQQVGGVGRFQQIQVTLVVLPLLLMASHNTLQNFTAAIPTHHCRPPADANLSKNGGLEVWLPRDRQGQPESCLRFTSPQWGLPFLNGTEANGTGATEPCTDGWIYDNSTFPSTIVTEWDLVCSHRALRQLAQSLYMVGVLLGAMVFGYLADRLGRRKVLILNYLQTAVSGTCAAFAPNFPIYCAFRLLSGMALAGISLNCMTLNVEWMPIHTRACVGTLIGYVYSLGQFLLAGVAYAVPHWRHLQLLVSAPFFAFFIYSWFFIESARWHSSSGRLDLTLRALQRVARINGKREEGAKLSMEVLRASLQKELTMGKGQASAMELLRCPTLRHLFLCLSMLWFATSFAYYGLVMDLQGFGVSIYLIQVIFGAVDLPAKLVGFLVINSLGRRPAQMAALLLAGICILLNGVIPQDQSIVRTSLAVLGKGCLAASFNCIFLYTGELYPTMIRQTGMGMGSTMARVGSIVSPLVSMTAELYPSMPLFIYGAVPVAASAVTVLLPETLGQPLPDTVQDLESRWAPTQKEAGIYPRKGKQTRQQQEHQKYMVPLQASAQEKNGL

[5] = test system: #1-LTL+ and #2-LTL+ PToCs; assay: Nephrotoxicity testing, LDH release; type: cell-based, human; conditions: for Effect on cisplatin-induced LDH release: cimetidine 10 mM, cisplatin 100 μM
P-gp = P-gp (Homo sapiens, UniProt P08183); conditions: #2-LTL+ PToC
#1-LTL+ PToC = assay: LIVE/DEAD cell viability assay; type: cell-based, human; conditions: cimetidine with cisplatin

Sequence of P-gp (P08183 whole entry): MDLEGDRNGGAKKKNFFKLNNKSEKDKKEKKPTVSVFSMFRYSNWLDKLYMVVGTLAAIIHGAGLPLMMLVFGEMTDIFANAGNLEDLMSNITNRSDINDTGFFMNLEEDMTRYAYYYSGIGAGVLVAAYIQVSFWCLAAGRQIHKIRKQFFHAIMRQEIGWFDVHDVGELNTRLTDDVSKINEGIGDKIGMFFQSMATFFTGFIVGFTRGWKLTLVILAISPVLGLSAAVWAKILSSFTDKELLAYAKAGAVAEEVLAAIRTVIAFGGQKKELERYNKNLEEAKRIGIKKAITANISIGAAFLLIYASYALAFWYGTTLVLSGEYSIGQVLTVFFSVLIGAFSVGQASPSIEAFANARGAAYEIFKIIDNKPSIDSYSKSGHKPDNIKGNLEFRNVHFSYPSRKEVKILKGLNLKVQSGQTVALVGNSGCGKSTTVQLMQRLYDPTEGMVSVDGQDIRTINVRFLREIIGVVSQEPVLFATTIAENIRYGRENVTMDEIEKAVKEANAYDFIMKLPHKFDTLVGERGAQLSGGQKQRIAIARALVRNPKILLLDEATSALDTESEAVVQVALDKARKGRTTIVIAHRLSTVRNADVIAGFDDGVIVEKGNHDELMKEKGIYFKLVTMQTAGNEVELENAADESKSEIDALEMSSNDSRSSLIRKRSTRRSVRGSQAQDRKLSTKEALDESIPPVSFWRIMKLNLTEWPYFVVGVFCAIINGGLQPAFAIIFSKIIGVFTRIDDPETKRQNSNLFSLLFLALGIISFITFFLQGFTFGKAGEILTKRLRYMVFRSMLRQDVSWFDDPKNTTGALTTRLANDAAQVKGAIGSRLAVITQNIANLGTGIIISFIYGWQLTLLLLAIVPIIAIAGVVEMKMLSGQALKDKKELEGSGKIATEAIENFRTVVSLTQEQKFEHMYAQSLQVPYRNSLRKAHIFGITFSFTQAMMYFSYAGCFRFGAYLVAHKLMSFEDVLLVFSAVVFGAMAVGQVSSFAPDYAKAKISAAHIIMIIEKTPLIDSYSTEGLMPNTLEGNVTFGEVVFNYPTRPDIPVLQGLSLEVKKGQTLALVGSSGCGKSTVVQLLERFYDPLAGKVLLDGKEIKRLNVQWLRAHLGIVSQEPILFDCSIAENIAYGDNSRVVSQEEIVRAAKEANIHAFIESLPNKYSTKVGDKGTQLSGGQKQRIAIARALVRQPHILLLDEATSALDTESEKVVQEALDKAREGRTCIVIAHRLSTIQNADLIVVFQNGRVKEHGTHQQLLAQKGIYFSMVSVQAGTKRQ

SMILES: CN(C)C(=O)CCSC(SCCC(=O)O)c1cccc(/C=C/c2ccc3ccc(Cl)cc3n2)c1 (stereo not drawn) [MK571]
Fluorescein transcellular transport (MRPs [1]): reduction
Intracellular fluorescein accumulation (fluorescence intensity) (MRPs [1]): notable increase
Effect on OAT1 excretion of PAH (MRPs [2]): significant impairment
Effect on OAT1 excretion of adefovir (MRPs [2]): significant impairment
Effect on OAT3 transport of rosuvastatin (MRPs [2]): no substantial effect

SMILES: O=C1OC2(c3ccc(O)cc3Oc3cc(O)ccc32)c2ccccc21 [fluorescein]
Fluorescein uptake of #2-LTL+ PToC relative to #1-LTL+ PToC (OAT1/3 [3]): approximately 60%
Fluorescein uptake compared to RPTEC (OAT1/3 [3]; #1-LTL+ and #2-LTL+ PToC, absence of probenecid): significantly higher fluorescein uptake
Transcellular transport of fluorescein in #2-LTL+ PToC relative to #1-LTL+ PToC (OAT1/3 [4]): 10%

SMILES: Nc1ncnc2c1ncn2CCOCP(=O)(O)O [adefovir]
Basal to apical (b → a) transport (Papp) in #1-LTL+ versus other PToC models (OAT1): notably higher

SMILES: COc1cccc2c1cc([N+](=O)[O-])c1c(C(=O)O)cc3c(c12)OCO3 [AA, Aristolochic acid I]
Normalized LDH release in #1-LTL+ compared to #2-LTL+ ([5]; 50 μM, 24 h): markedly higher
Normalized LDH release compared to control group without aristolochic acid ([5]; 50 μM, basal, 24 h, #1-LTL+ and #2-LTL+ PToCs): significantly higher

SMILES: C=C[C@H]1C[N@@]2CC[C@H]1C[C@@H]2[C@@H](O)c1ccnc2ccc(OC)cc12 [quinidine]
Basal to apical (b → a) transport rate compared with RPTEC (P-gp): less basal to apical (b → a) transport rate

SMILES: CN/C(=N/CCSCc1nc[nH]c1C)NC#N [cimetidine]
Effect on cisplatin-induced LDH release ([5]; 24 h, #1-LTL+): significant reduction
Effect on cisplatin-induced LDH release ([5]; 24 h, #2-LTL+): less pronounced
Effect on cisplatin-induced LDH release ([5]; 48 h, #1-LTL+ PToC): no difference among all conditions
Effect on cisplatin-induced LDH release ([5]; 48 h, #2-LTL+ PToC): notable reduction
Effect on cisplatin-induced cell death (LIVE/DEAD) (#1-LTL+ PToC): reduction in cell death

Second part, the compound after the results:

Basal to apical (b → a) transport (Papp) in #1-LTL+ versus other PToC models (OAT3; 10 μM substrate, #1-LTL+ PToC): notably higher
SMILES: CC(C)c1nc(N(C)S(C)(=O)=O)nc(-c2ccc(F)cc2)c1/C=C/[C@@H](O)C[C@@H](O)CC(=O)O [rosuvastatin]

Difference in ER between #1-LTL+ and #2-LTL+ PToCs (OCT2 and MATE1): no significant differences
Transcellular basal to apical (b → a) transport rate, comparison of PToCs (OCT2 and MATE1; #1-LTL+ PToC versus #2-LTL+ and RPTEC): highest transport rates
SMILES: CN(C)C(=N)N=C(N)N [metformin]

Impact on rosuvastatin transport (OAT3; probenecid 100 μM, #1-LTL+ and #2-LTL+): minimal impact
SMILES: CCCN(CCC)S(=O)(=O)c1ccc(C(=O)O)cc1 [probenecid]

From paper PMC11403423 (iScience, 2024)
